From patent publication US20210221848A1, “POLYMYXIN DERIVATIVES AND THEIR USE IN COMBINATION THERAPY TOGETHER WITH DIFFERENT ANTIBIOTICS” (priority 2014, published 2021)

Legend:
[1] = tested on: P. aeruginosa; conditions: absence of a second agent, Table 6B
[2] = tested on: E. coli; conditions: absence of a second agent, Table 6B
[3] = tested on: K. pneumoniae; assay: MIC in the presence of a fixed concentration (2 μg/mL) of Rifampicin; type: cell-based, Klebsiella pneumoniae; conditions: Rifampicin 2 μg/mL
[4] = tested on: A. baumannii; assay: MIC in the presence of […] of rifampicin; type: cell-based, Acinetobacter baumannii
[5] = tested on: P. aeruginosa ATCC 27853; assay: In vivo efficacy, thigh infection in mice, IV dosing, 9 h model; parameters: species or system Pseudomonas aeruginosa; conditions: mouse thigh, dose 3.4 mg/kg drug base IV at 1, 3.5 and 6 h post-infection
Experimental: Compounds were administered in solution by intravenous (IV) bolus injection into the lateral tail vein. […] At 1 hour post infection, 4 animals were humanely euthanized using pentabarbitone overdose to provide a pre-treatment control group. At 9 hours post infection, the clinical condition of all animals was assessed prior to them being humanely euthanized by pentabarbitone overdose. Animal weight was determined before both thighs were removed and weighed individually. Individual thigh tissue samples were homogenized in ice cold sterile phosphate buffered saline. Thigh homogenates were then quantitatively cultured onto cystine lactose electrolyte deficient (CLED) agar and incubated at 37° C. for 24 hours before colonies were counted.

[6] = tested on: HK-2 cell line; assay: In vitro renal cell toxicity assay (resazurin reduction)
Experimental: MICs were determined as described herein. HK-2 cell IC50 values were determined as described herein. Values are reported relative to Polymyxin B.

[7] = tested on: A. baumannii; conditions: absence of a second agent, Table 6B
[8] = tested on: E. coli; assay: MIC in the presence of a fixed concentration (2 μg/mL) of Rifampicin; type: cell-based, Escherichia coli; conditions: Rifampicin 2 μg/mL
[9] = tested on: K. pneumoniae; conditions: absence of a second agent, Table 6B
[10] = tested on: Escherichia coli ATCC 25922; conditions: mouse thigh, 1.47 mg/kg/dose free base IV at 1, 3.5 and 6 h post-infection, 9 h model
[11] = A. baumannii ATCC BAA-747, Table 5C
[12] = A. baumannii ATCC BAA-747, Table 5D
[13] = A. baumannii NCTC 13424, Table 5C
[14] = A. baumannii NCTC 13424, Table 5D

In the case of “1,2,3,4- tetrahydroisoquinoline- 4-carbonyl polymyxin B nonapeptide [Example D15]”, the “MIC, P. aeruginosa ATCC 27853” value [1] was 0.25 micrograms/mL, the “MIC, P. aeruginosa CCUG 59347” value [1] was 0.5 micrograms/mL and the “MIC, E. coli ATCC 25922” value [2] was 0.25 micrograms/mL. For the same substance, the “MIC, E. coli NCTC 13441” value [2] was 0.5 micrograms/mL, the “MIC in combination with Rifampicin, K. pneumoniae ATCC 4352” value ([3]; Table 5C) was 0.03 micrograms/mL and the “MIC in combination with Rifampicin, K. pneumoniae ATCC 4352” value ([3]; Table 5D) was ≤0.015 micrograms/mL. For the same substance, the “MIC in combination with Rifampicin, K. pneumoniae ATCC BAA-2146” value ([3]; Table 5C) was 0.125 micrograms/mL, the “MIC in combination with Rifampicin, K. pneumoniae ATCC BAA-2146” value ([3]; Table 5D) was 0.125 micrograms/mL and the “MIC in combination with Rifampicin, A. baumannii ATCC BAA-747” value [4, 11] was ≤0.015 micrograms/mL. The “MIC in combination with Rifampicin, A. baumannii ATCC BAA-747” value [4, 12] was ≤0.015 micrograms/mL, the “MIC in combination with Rifampicin, A. baumannii NCTC 13424” value [4, 13] was ≤0.015 micrograms/mL and the “MIC in combination with Rifampicin, A. baumannii NCTC 13424” value [4, 14] was ≤0.015 micrograms/mL. The “Log reduction from vehicle (CFU/g)” value [5] was 3.89 log10 CFU/g, the “HK-2 IC50 rel to PMB” value [6] was 17 and the “MIC, A. baumannii ATCC BAA-747” value [7] was 2 micrograms/mL. For the same substance, the “MIC, A. baumannii NCTC 13424” value [7] was 2 micrograms/mL, the “MIC in combination with Rifampicin, E. coli ATCC 25922” value ([8]; Table 5C) was ≤0.015 micrograms/mL and the “MIC in combination with Rifampicin, E. coli ATCC 25922” value ([8]; Table 5D) was ≤0.015 micrograms/mL. The “MIC in combination with Rifampicin, E. coli NCTC 13441” value ([8]; Table 5C) was 0.03 micrograms/mL and the “MIC in combination with Rifampicin, E. coli NCTC 13441” value ([8]; Table 5D) was 0.03 micrograms/mL.

For “(S)-1-benzyl piperazine-2-carbonyl polymyxin B nonapeptide [Example D52]”, the “MIC, P. aeruginosa ATCC 27853” value [1] was 0.5 micrograms/mL, the “MIC, P. aeruginosa CCUG 59347” value [1] was 0.5 micrograms/mL and the “MIC, E. coli ATCC 25922” value [2] was 0.125 micrograms/mL. For the same substance, the “MIC, E. coli NCTC 13441” value [2] was 0.125 micrograms/mL, the “MIC, K. pneumoniae ATCC 4352” value [9] was 0.125 micrograms/mL and the “MIC, K. pneumoniae ATCC BAA-2146” value [9] was 0.25 micrograms/mL. The “Mean log10 CFU reduction vs. control” value [10] was 4.04 log10 CFU, the “MIC, A. baumannii ATCC BAA-747” value [7] was 0.5 micrograms/mL and the “MIC, A. baumannii NCTC 13424” value [7] was 0.25 micrograms/mL.

For “(cis-5-cyclohexyl- piperidine)-3-carbonyl polymyxin B nonapeptide [Example D11]”, the “MIC, P. aeruginosa ATCC 27853” value [1] was 0.5 micrograms/mL, the “MIC, P. aeruginosa CCUG 59347” value [1] was 0.5 micrograms/mL and the “MIC, E. coli ATCC 25922” value [2] was 0.25 micrograms/mL. The “MIC, E. coli NCTC 13441” value [2] was 0.25 micrograms/mL, the “MIC in combination with Rifampicin, K. pneumoniae ATCC 4352” value ([3]; Table 5C) was 0.06 micrograms/mL and the “MIC in combination with Rifampicin, K. pneumoniae ATCC 4352” value ([3]; Table 5D) was 0.125 micrograms/mL. For the same substance, the “MIC in combination with Rifampicin, K. pneumoniae ATCC BAA-2146” value ([3]; Table 5C) was 1 micrograms/mL, the “MIC in combination with Rifampicin, K. pneumoniae ATCC BAA-2146” value ([3]; Table 5D) was 0.5 micrograms/mL and the “MIC, K. pneumoniae ATCC 4352” value [9] was 0.25 micrograms/mL. For the same substance, the “MIC, K. pneumoniae ATCC BAA-2146” value [9] was 0.25 micrograms/mL, the “MIC in combination with Rifampicin, A. baumannii ATCC BAA-747” value [4, 11] was 0.06 micrograms/mL and the “MIC in combination with Rifampicin, A. baumannii ATCC BAA-747” value [4, 12] was 0.125 micrograms/mL. The “MIC in combination with Rifampicin, A. baumannii NCTC 13424” value [4, 13] was 0.5 micrograms/mL, the “MIC in combination with Rifampicin, A. baumannii NCTC 13424” value [4, 14] was 0.25 micrograms/mL and the “Log reduction from vehicle (CFU/g)” value [5] was 3.86 log10 CFU/g. The “MIC, A. baumannii ATCC BAA-747” value [7] was 1 micrograms/mL, the “MIC, A. baumannii NCTC 13424” value [7] was 0.5 micrograms/mL and the “MIC in combination with Rifampicin, E. coli ATCC 25922” value ([8]; Table 5C) was ≤0.015 micrograms/mL. The “MIC in combination with Rifampicin, E. coli ATCC 25922” value ([8]; Table 5D) was 0.125 micrograms/mL, the “MIC in combination with Rifampicin, E. coli NCTC 13441” value ([8]; Table 5C) was 0.06 micrograms/mL and the “MIC in combination with Rifampicin, E. coli NCTC 13441” value ([8]; Table 5D) was 0.06 micrograms/mL.
